# Starred links: 1 amine or outer side, 2 acyl side, 3 side chain; linkers in the order of their positions; H or OH if unused. Positions of bridges follow the written chain, without caps; N, C: chain ends. Non-standard residues stand in square brackets, D forms with d. Residues, ends and D or L forms follow the SMILES beside them. *: point of attachment. Orn(4R-OH,5R-OCH2CH2NMe3+) = C[N+](C)(C)CCO[C@@H](N[*:3])[C@H](O)C[C@H](N[*:1])C(=O)[*:2]; pTerphenylCO(4''-OnC5H11) = CCCCCOc1ccc(-c2ccc(-c3ccc(C(=O)*)cc3)cc2)cc1; hTyr(3S-OH,4S-OH) = N[C@H](C(=O)O)[C@H](O)[C@@H](O)c1ccc(O)cc1; Pro(3S-OH,4S-Me) = C[C@H]1CN[C@H](C(=O)O)[C@H]1O; Hyp = O=C(O)[C@@H]1C[C@@H](O)CN1
# Experiments:
# [1] = assay type: in vivo, rat; conditions: all treatment dose and duration
# Procedure: The rats were monitored at a frequency appropriate for their clinical condition. Rat weights were recorded at least once daily to ensure animals remained within ethical limits.
# [2] = Pharmacokinetic profile in mice following a 10-mg/kg subcutaneous dose; assay type: in vivo; conditions: mouse, plasma, sc
# [3] = test system: A. fumigatus strain AF293; assay: Murine model of pulmonary aspergillosis (Example 13), survival
# [4] = test system: Candida albicans ATCC SC5314; assay: Prophylaxis, neutropenic ICR mouse candidiasis model, kidney CFU; conditions: for clearance of kidney CFU: 24 hours post-challenge
# [5] = test system: A. fumigatus strain AF293; assay: Murine model of pulmonary aspergillosis (Example 13), terminal lung burden; assay type: in vivo, Aspergillus fumigatus
# Procedure: A secondary endpoint for the study was terminal lung tissue burden. Immediately following confirmation of death, carcasses were frozen at −20° C. prior to tissue dissection and processing. The frozen carcasses were thawed at room temperature and the lungs removed and placed into pre-weighed bead-beating tubes containing 2 mL of PBS and subjected to mechanical disruption. Organ homogenates were diluted further in PBS and quantitatively cultured for A. fumigatus onto SABC and incubated at 30° C. for 24-48 hours. In addition, a 300 μL aliquot of the undiluted lung tissue homogenate was stored at −80° C. for possible optional assessment of burden by qPCR.
# [6] = CD101 5mpk Day −3 vs. CD101 5mpk Day −5
# [7] = CD101 5mpk Day −5 vs. CD101 10mpk Day −5
# [8] = CD101 5mpk Day −5 vs. CD101 20mpk Day −5
# [9] = CD101 20mpk Day −1 vs. CD101 20mpk Day −3
# [10] = Micafungin 2mpk Day −1 vs. CD101 10mpk Day −1
# [11] = Micafungin 2mpk Day −1 vs. CD101 20mpk Day −1
structure (smiles),measurement,setting,value
"CCCCCOc1ccc(-c2ccc(-c3ccc(C(=O)N[C@H]4C[C@@H](O)[C@@H](OCC[N+](C)(C)C)NC(=O)[C@@H]5[C@@H](O)[C@@H](C)CN5C(=O)[C@H]([C@@H](C)O)NC(=O)[C@H]([C@H](O)[C@@H](O)c5ccc(O)cc5)NC(=O)[C@@H]5C[C@@H](O)CN5C(=O)[C@H]([C@@H](C)O)NC4=O)cc3)cc2)cc1 [CD101] ({pTerphenylCO(4''-OnC5H11)}-[Orn(4R-OH,5R-OCH2CH2NMe3+)]T[Hyp][hTyr(3S-OH,4S-OH)]T[Pro(3S-OH,4S-Me)]; lactam 1-C)",tolerability,[1],well tolerated with no adverse events observed
same,half-life,[2],~25 h
same,bioavailability,[2]; read-out: absolute bioavailability,~50%
same,Mean Survival,[3]; CD101 5 mg/kg IP Day 0,67.8 h
same,Median Survival,[3]; CD101 5 mg/kg IP Day 0,64.6 h
same,Mean Survival,[3]; CD101 5 mg/kg IP Day −1,72.1 h
same,Median Survival,[3]; CD101 5 mg/kg IP Day −1,67.6 h
same,Mean Survival,[3]; CD101 5 mg/kg IP Day −3,70.0 h
same,Median Survival,[3]; CD101 5 mg/kg IP Day −3,67.7 h
same,Mean Survival,[3]; CD101 5 mg/kg IP Day −5,65.3 h
same,Median Survival,[3]; CD101 5 mg/kg IP Day −5,65.3 h
same,Mean Survival,[3]; CD101 10 mg/kg IP Day −1,121.8 h
same,Median Survival,[3]; CD101 10 mg/kg IP Day −1,81.0 h
same,Mean Survival,[3]; CD101 10 mg/kg IP Day −3,76.9 h
same,Median Survival,[3]; CD101 10 mg/kg IP Day −3,73.4 h
same,Mean Survival,[3]; CD101 10 mg/kg IP Day −5,67.2 h
same,Median Survival,[3]; CD101 10 mg/kg IP Day −5,65.7 h
same,Mean Survival,[3]; CD101 20 mg/kg IP Day −1,155.6 h
same,Median Survival,[3]; CD101 20 mg/kg IP Day −1,72.3 h
same,Mean Survival,[3]; CD101 20 mg/kg IP Day −3,91.9 h
same,Median Survival,[3]; CD101 20 mg/kg IP Day −3,69.8 h
same,Mean Survival,[3]; CD101 20 mg/kg IP Day −5,75.5 h
same,Median Survival,[3]; CD101 20 mg/kg IP Day −5,69.8 h
same,"Log-Rank test, survival",[3]; [6],0.0183
same,"Peto-Prentice (Wilcoxon) test, survival",[3]; [6],0.0426
same,"Log-Rank test, survival",[3]; [7],0.0009
same,"Peto-Prentice (Wilcoxon) test, survival",[3]; [7],0.0015
same,"Log-Rank test, survival",[3]; [8],0.0009
same,"Peto-Prentice (Wilcoxon) test, survival",[3]; [8],0.0015
same,"Log-Rank test, survival",[3]; [9],0.0387
same,"Peto-Prentice (Wilcoxon) test, survival",[3]; [9],0.033
same,"Peto-Prentice (Wilcoxon) test, survival",[3]; Micafungin 2mpk Day −1 vs. CD101 5mpk Day −1,0.0467
same,"Log-Rank test, survival",[3]; [10],0.0201
same,"Peto-Prentice (Wilcoxon) test, survival",[3]; [10],0.0191
same,"Log-Rank test, survival",[3]; [11],0.0047
same,"Peto-Prentice (Wilcoxon) test, survival",[3]; [11],0.0067
same,"Log-Rank test, survival",[3]; Vehicle vs. CD101 20mpk Day −1,NS (0.0533)
same,"Peto-Prentice (Wilcoxon) test, survival",[3]; Vehicle vs. CD101 20mpk Day −1,0.0465
same,clearance of kidney CFU,[4]; CD101 SC 10 mg/kg at Day −3 and Day −1,Complete clearance was observed in all animals
same,clearance of kidney CFU,[4]; CD101 SC 20 mg/kg on Day −3,all but one animal
same,kidney CFU burden,"[4]; CD101 SC 20 mg/kg, Day −5, −3 or −1",reduced CFU burden regardless of prophylactic treatment day
same,kidney CFU,[4]; CD101 SC 5 or 10 mg/kg at Day −3 and Day −1,significant decrease in CFU
same,animals completely cleared of CFU burden,"Candida albicans SC5314; CD101 SC 1 mg/kg, by 24 hr",4 of 5
same,kidney CFU compared with the vehicle control,"Candida albicans SC5314; CD101 SC 1, 3, and 10 mg/kg, 24 hr",significant reduction in kidney CFU
same,CFU clearance,"Candida albicans SC5314; CD101 SC 3 or 10 mg/kg, 24 hr",complete CFU clearance
same,Group Geometric mean (lung burden),[5]; CD101 5 mg/kg IP Day 0,5.65 × 10^4 CFU/g
same,Log10 Group Geometric mean (lung burden),[5]; CD101 5 mg/kg IP Day 0,4.75 CFU/g
same,Log10 reduction from vehicle control,[5]; CD101 5 mg/kg IP Day 0,−0.98 CFU/g
same,Group Geometric mean (lung burden),[5]; CD101 5 mg/kg IP Day −1,3.75 × 10^4 CFU/g
same,Log10 Group Geometric mean (lung burden),[5]; CD101 5 mg/kg IP Day −1,4.57 CFU/g
same,Log10 reduction from vehicle control,[5]; CD101 5 mg/kg IP Day −1,−0.80 CFU/g
same,Group Geometric mean (lung burden),[5]; CD101 5 mg/kg IP Day −3,5.71 × 10^4 CFU/g
same,Log10 Group Geometric mean (lung burden),[5]; CD101 5 mg/kg IP Day −3,4.76 CFU/g
same,Log10 reduction from vehicle control,[5]; CD101 5 mg/kg IP Day −3,−0.98 CFU/g
same,Group Geometric mean (lung burden),[5]; CD101 5 mg/kg IP Day −5,6.36 × 10^4 CFU/g
same,Log10 Group Geometric mean (lung burden),[5]; CD101 5 mg/kg IP Day −5,4.80 CFU/g
same,Log10 reduction from vehicle control,[5]; CD101 5 mg/kg IP Day −5,−1.03 CFU/g
same,Group Geometric mean (lung burden),[5]; CD101 10 mg/kg IP Day −1,5.17 × 10^3 CFU/g
same,Log10 Group Geometric mean (lung burden),[5]; CD101 10 mg/kg IP Day −1,3.71 CFU/g
same,Log10 reduction from vehicle control,[5]; CD101 10 mg/kg IP Day −1,0.06 CFU/g
same,Group Geometric mean (lung burden),[5]; CD101 10 mg/kg IP Day −3,7.34 × 10^3 CFU/g
same,Log10 Group Geometric mean (lung burden),[5]; CD101 10 mg/kg IP Day −3,3.87 CFU/g
same,Log10 reduction from vehicle control,[5]; CD101 10 mg/kg IP Day −3,−0.09 CFU/g
same,Group Geometric mean (lung burden),[5]; CD101 10 mg/kg IP Day −5,3.40 × 10^4 CFU/g
same,Log10 Group Geometric mean (lung burden),[5]; CD101 10 mg/kg IP Day −5,4.53 CFU/g
same,Log10 reduction from vehicle control,[5]; CD101 10 mg/kg IP Day −5,−0.76 CFU/g
same,Group Geometric mean (lung burden),[5]; CD101 20 mg/kg IP Day −1,1.12 × 10^4 CFU/g
same,Log10 Group Geometric mean (lung burden),[5]; CD101 20 mg/kg IP Day −1,4.05 CFU/g
same,Log10 reduction from vehicle control,[5]; CD101 20 mg/kg IP Day −1,−0.28 CFU/g
